Test results reported in PubChem BioAssay (NCI).
Where “and” joins values, the source holds several entries; their conditions need not be identical. Identical values can stand only once.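 These data come from cells grown in 96-well plates and exposed to compound for 48 hours at five concentrations. Abbreviation: GI50, concentration required for 50% inhibition of growth. At the TGI there is no net growth.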

Experiments:
Assay in all cases: DTP human tumour cell line panel, 48 h
MDA-MB-231 breast = tested on: MDA-MB-231 breast
MDA-MB-435 = tested on: MDA-MB-435
DU-145 prostate = tested on: DU-145 prostate
NCI/ADR-RES ovarian = tested on: NCI/ADR-RES ovarian
T-47D breast = tested on: T-47D breast
DLD-1 colon = tested on: DLD-1 colon
KM20L2 colon = tested on: KM20L2 colon
LXFL 529 NSCLC = tested on: LXFL 529 NSCLC
M19-MEL melanoma = tested on: M19-MEL melanoma

SMILES | GI50 (MDA-MB-231 breast) | TGI (MDA-MB-231 breast) | GI50 (MDA-MB-435) | TGI (MDA-MB-435) | GI50 (DU-145 prostate) | TGI (DU-145 prostate) | GI50 (NCI/ADR-RES ovarian) | TGI (NCI/ADR-RES ovarian) | GI50 (T-47D breast) | TGI (T-47D breast) | TGI (DLD-1 colon) | TGI (KM20L2 colon) | TGI (LXFL 529 NSCLC) | TGI (M19-MEL melanoma)
NC(=O)c1ccc(NC(=O)c2oc3ccccc3c2-c2cnn(-c3ccccc3)c2)cc1 | 4.65 µM | > 100 µM | > 100 µM | > 100 µM |  |  |  |  |  |  |  |  |  | 
O=C(O)c1c(Cl)c(Cl)c(Cl)c(Cl)c1-c1c2cc(I)c(=O)c(I)c-2oc2c(I)c(O)c(I)cc12 | 22.5 µM and 26.7 µM | 82.8 µM and 75.5 µM | 62.9 µM and 41.4 µM | 93 µM | 37.2 µM | 94.3 µM | > 200 µM | > 200 µM | 29.4 µM | 78.2 µM |  |  |  | 
CC1=C[C@H]2C[C@@]3(C)O[C@@H]([C@]4(C)CC[C@H]([C@@H](C)C(=O)O)OO4)CC3C(C)(C)[C@H]2CC1 (stereo partly specified) |  |  |  |  |  |  |  |  |  |  | 2.47 µM | 3.91 µM | 1.9 µM | 3.3 µM
O=C1CCCC2COc3ccc(O)c1c32 (stereo unspecified) |  |  |  |  |  |  |  |  |  |  | > 100 µM | > 100 µM |  | > 100 µM
COc1cc([N+](=O)[O-])c2ncccc2c1O | 26.1 µM | > 100 µM | 3.53 µM | 14.8 µM | 2.32 µM | 5.73 µM | 13.3 µM | 86.9 µM | 27 µM | > 100 µM |  |  |  | 
NC(=NC1C2CC3CC(C2)CC1C3)Nc1ccc(I)cc1 (stereo unspecified) | 3.31 µM | 11 µM | 3.8 µM | 13.6 µM | 3.66 µM | 12.6 µM | 4.59 µM | 17.1 µM |  |  |  |  |  | 
CCOC(=O)c1cc2cc([N+](=O)[O-])ccc2oc1=O |  | > 100 µM |  | > 100 µM |  | > 100 µM |  | > 100 µM |  | > 100 µM |  |  |  | 
CCc1ccc(/C=C2/SC(=S)NC2=O)cc1 | 18.9 µM | 46.7 µM | 27.5 µM | > 100 µM | 38.6 µM | > 100 µM | 25.3 µM | 89.4 µM | 23.5 µM | 89.2 µM |  |  |  | 
C1CCN2CC34CC(CC5CCCN(C6CCCC3N6)C54)C2C1 (stereo unspecified) |  | > 100 µM |  | > 100 µM |  | > 100 µM |  | > 100 µM |  | > 100 µM |  |  |  | 
N#CC(C#N)=C/C=C/c1cccc([N+](=O)[O-])c1 | 1.74 µM | 16 µM | 0.426 µM | 2.53 µM | 1.05 µM | 12.8 µM | 0.652 µM | 5.04 µM | 1.4 µM | 6.81 µM |  |  |  | 
Cc1[nH]nc(C(=O)N/N=C/c2cccs2)c1N=NN(C)C |  | 66.6 µM |  | 57 µM |  | > 100 µM |  | > 100 µM |  | 41.3 µM |  |  |  | 
COc1cc(C(N)=O)c(OC)c(OC)c1OC |  |  |  |  |  |  |  |  |  |  | > 100 µM | > 100 µM | > 100 µM | > 100 µM
Cc1cc(C#Cc2ccccc2)ccc1-n1c(/C=C/c2ccc(O)cc2)nc2ccccc2c1=O | 3.89 µM | 29.5 µM | 2.82 µM | 22.8 µM | 4.87 µM | > 100 µM | 3.09 µM | 42 µM | 2.02 µM | 8.13 µM |  |  |  | 
O=C(/C=C/c1cccs1)Nc1ncc(Cc2ccccc2F)s1 | 0.611 µM | > 100 µM | 0.0312 µM | 0.113 µM | 0.3 µM | > 100 µM | 0.246 µM | > 100 µM | 0.404 µM | > 100 µM |  |  |  | 
O=C1CCC(c2ccccc2)(c2ccccc2)CC1 |  | > 100 µM |  | > 100 µM |  | > 100 µM |  | > 100 µM |  | > 100 µM |  |  |  | 
CCN(CC)c1ccc(/C=N\NC(=O)c2cccc(Nc3ccnc(C(F)(F)F)c3)c2)c(O)c1 | 0.345 µM | > 43.1 µM | 0.412 µM | > 24.1 µM | 0.159 µM | > 100 µM | 0.765 µM | > 28.1 µM | 0.485 µM | > 100 µM |  |  |  | 
COCCOC(=O)CCn1cc(F)c(=O)[nH]c1=O | > 150 µg/mL | > 150 µg/mL | 5.67 µg/mL | > 150 µg/mL | 5.57 µg/mL | > 150 µg/mL | 46.4 µg/mL | > 150 µg/mL | 73.4 µg/mL | > 150 µg/mL |  |  |  | 
COc1cc(C=NCC(=O)CSC(c2ccccc2)c2ccccc2)cc(OC)c1OC | 18.1 µM | > 100 µM | 25.1 µM | 80.2 µM | 40.8 µM | > 100 µM | 7.36 µM | > 100 µM | 4.48 µM | 53.7 µM |  |  |  | 
C=C1C(=O)O[C@H]2[C@H](OC(C)=O)[C@@H](C)CCC/C(C)=C/CC[C@]3(CO3)[C@H](O)C[C@@H]12 | 5.25 µM | 17.2 µM | 3.01 µM | 7.99 µM | 2.56 µM | 10.2 µM | 5.92 µM | 35.2 µM | 2.8 µM | 9.88 µM |  |  |  | 
Cc1ccc(S(=O)(=O)ON=C2CC(c3ccccc3)N(C)C(c3ccccc3)C2)cc1 (stereo unspecified) |  |  |  |  |  |  |  |  |  |  |  | 53.6 µM and 45.9 µM | 33.3 µM and 40.3 µM | 53.5 µM and 56.2 µM
CN1C=CN(Cc2ccc(-c3ccccn3)nc2)[CH-]1.CN1C=CN(Cc2ccc(-c3ccccn3)nc2)[CH-]1.[Au+3] | 2.64 µM | 15 µM | 2.97 µM | 20.9 µM | 4.16 µM | 36.8 µM | > 70.8 µM | > 100 µM | 1.17 µM | 3.07 µM |  |  |  | 
CC(=O)OCC1OC(O[C@@H]2C[C@H]3C(C)(C)[C@H](OC(C)=O)CC[C@]3(C)[C@H]3CC[C@@H]4[C@]5(CC[C@@]4(C)[C@@]32C)O[C@@H]([C@H](O)C(C)(C)O)C[C@@H]5C)C(O)C(O)C1O (stereo partly specified) | 10.2 µM | 22.3 µM | 8.36 µM | 22.4 µM | 10.6 µM | 22.8 µM | 16.4 µM | 31.1 µM | 5.63 µM | 18.4 µM |  |  |  | 
COc1cc(Nc2ncc(-c3ccccc3)o2)cc(OC)c1OC | 2.5 µM | > 25 µM | 0.154 µM | > 5.89 µM | 5.98 µM | > 25 µM | 1.38 µM | > 25 µM | 0.231 µM | > 25 µM |  |  |  | 
NC(=O)c1ccc(-c2c3ccccc3cc3c2ccc2ccccc23)cc1 | 3.91 µM | 23.8 µM | 0.382 µM | 3.51 µM | 4.4 µM | 26.2 µM | 1.65 µM | 18.1 µM | 3.19 µM | > 100 µM |  |  |  | 
